Values joined by “and” are separate entries in the source; they are usually repeats but may differ in a detail not shown here. Equal entries are not always repeated. Where only a bound is given, the exact number is not on record here.

Data set [1] addresses Poly [ADP-ribose] polymerase 1 (Homo sapiens, UniProt P09874). Kind of data set: Inhibition of PARP1 by topcount microplate scintillation counter.
Data set [2] concerns HeLa. Kind of data set: Antiproliferative activity against BRCA1-deficient human HeLa cells after 7 days by celltiter-blue assay. The data set is classed as functional. The note with it: 168 h. On the technique in general: Resazurin is reduced to fluorescent resorufin, in cell work by metabolically active cells.
The subject of data set [3] is HeLa. Kind of data set: Antiproliferative activity against BRCA1-proficient human HeLa cells after 7 days by celltiter-blue assay. As to conditions: 168 h. The class given is functional.
The nature of data set [4]: Intrinsic clearance in rat liver microsomes. The class given is ADME, Microsome.
Data set [5] is described as follows: Clearance in rat. The class given is ADME, organism-based. As to conditions: in vivo.
The next data set concerns the target CYP3A4 (Homo sapiens, UniProt P08684). Kind of data set: Inhibition of CYP3A4 at 10 uM. The class given is ADME.
The test system of data set [6] is HeLa. Kind of data set: Selectivity ratio of CC50 for BRCA1-proficient human HeLa to CC50 for BRCA1-deficient human HeLa cells. The class given is functional.
Data set [7] in a line: Lipophilicity, log D of the compound. The data set is classed as physicochemical. The note with it: octanol/water.

Poly [ADP-ribose] polymerase 1, sequence (P09874 whole entry): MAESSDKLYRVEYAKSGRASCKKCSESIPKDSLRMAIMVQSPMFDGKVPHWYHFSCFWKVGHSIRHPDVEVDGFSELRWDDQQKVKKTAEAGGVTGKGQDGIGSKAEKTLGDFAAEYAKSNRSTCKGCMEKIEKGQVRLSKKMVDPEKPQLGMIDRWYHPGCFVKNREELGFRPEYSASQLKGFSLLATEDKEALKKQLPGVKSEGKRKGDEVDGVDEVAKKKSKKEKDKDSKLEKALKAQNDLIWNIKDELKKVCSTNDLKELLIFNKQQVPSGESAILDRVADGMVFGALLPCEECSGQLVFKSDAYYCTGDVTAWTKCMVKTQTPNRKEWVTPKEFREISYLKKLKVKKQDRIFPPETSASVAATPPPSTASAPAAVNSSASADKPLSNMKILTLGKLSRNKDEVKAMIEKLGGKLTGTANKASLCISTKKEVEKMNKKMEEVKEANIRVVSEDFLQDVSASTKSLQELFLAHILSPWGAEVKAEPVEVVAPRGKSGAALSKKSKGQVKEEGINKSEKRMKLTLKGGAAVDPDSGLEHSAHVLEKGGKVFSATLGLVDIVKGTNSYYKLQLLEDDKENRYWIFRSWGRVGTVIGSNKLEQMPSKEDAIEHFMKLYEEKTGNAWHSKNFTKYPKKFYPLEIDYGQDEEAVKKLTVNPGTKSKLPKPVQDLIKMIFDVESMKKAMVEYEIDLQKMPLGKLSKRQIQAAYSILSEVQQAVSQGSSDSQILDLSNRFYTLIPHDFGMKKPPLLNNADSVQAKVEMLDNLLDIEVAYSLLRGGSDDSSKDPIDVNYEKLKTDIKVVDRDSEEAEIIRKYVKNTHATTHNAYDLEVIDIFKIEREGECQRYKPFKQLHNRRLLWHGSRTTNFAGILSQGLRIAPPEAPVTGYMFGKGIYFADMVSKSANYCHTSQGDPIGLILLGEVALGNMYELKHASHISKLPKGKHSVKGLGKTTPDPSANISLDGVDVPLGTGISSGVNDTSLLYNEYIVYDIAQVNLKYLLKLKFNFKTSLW
CYP3A4, sequence (P08684 whole entry): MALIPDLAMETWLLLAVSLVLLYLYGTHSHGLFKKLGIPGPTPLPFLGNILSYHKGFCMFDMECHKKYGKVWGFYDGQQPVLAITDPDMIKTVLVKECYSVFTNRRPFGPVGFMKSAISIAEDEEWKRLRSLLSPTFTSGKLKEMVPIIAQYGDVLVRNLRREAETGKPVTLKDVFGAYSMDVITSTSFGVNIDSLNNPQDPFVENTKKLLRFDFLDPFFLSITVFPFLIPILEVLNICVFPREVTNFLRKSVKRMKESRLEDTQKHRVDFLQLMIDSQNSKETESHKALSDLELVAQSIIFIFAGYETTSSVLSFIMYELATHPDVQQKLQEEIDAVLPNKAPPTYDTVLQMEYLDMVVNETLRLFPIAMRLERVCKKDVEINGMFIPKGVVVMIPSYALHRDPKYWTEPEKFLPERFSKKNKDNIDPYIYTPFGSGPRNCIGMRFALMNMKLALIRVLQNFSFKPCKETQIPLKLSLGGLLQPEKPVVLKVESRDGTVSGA

As usually defined, the IC50 is the point on the concentration scale where inhibition reaches its midpoint. A word on the CC50: it is the concentration at which the toxic effect on the cells reaches its halfway point. A high value points to lower toxicity to the cells. The microsomal CLint is the capacity of the preparation to metabolise the compound, expressed as a volume cleared per time. A lower microsomal CLint goes with slow turnover. A word on the clearance: it is the volume of plasma or blood freed of the substance per unit of time. A word on the inhibition: it is the relative decrease from the control value, in per cent. Read a low inhibition as a weak effect. In turn, `O=C(c1cc(Cc2c[nH]c(=O)c3cc(Cl)c(Cl)n23)ccc1F)N1CCC(N2CCCC2)CC1` came in with an IC50 in data set [1] of 5.4 nM. The CC50 was 120 nM with HeLa [2] and above 5000 nM with HeLa [3]. In data set [4], this molecule returned a microsomal CLint of 135 µL/min/mg. In addition, in data set [5], the clearance was determined as 94 mL/min/kg. On CYP3A4, testing at 10 µM gave an inhibition of 30%.
With `CNC(C)(C)C(=O)N1CCN(C(=O)c2cc(Cc3c[nH]c(=O)c4cc(Cl)c(Cl)n34)ccc2F)CC1`, in the data set on HeLa [6], the Selectivity ratio was 100 and 50. In addition, in data set [1], the midpoint of inhibition, the IC50, lay at 2.1 nM. Further, the CC50 with HeLa [2] is 53 nM; in the data set on HeLa [3], above 5000 nM. The molecule also displayed a clearance in data set [5] above 200 mL/min/kg.
By logD is commonly meant the decadic logarithm of the distribution of all forms, ionised or not, between an organic phase and buffer at a given pH. Low readings indicate a more hydrophilic compound, high ones a more lipophilic compound. Take `O=C(c1cc(Cc2c[nH]c(=O)c3cccn23)ccc1F)N1CCCNCC1`: the IC50 in data set [1] was determined as 1.8 nM. For the same molecule, the CC50 in the data set with HeLa [2] and in the data set on HeLa [3] was above 20000 nM each time. Further, the logD in data set [7] was -0.89.

These data come from ChEMBL document CHEMBL1158513, “Identification and SAR of novel pyrrolo[1,2-a]pyrazin-1(2H)-one derivatives as inhibitors of poly(ADP-ribose) polymerase-1 (PARP-1)” (Bioorg Med Chem Lett, 2010).
